System: anaphylactic asthma in guinea-pigs
Assay: Antagonism to anaphylactic asthma in guinea-pigs (inhibitory effect from number of surviving animals)
Assay type: in vivo, guinea-pig (male Hartley strain)
Conditions: oral, 30 minutes before egg albumin challenge, survival more than 2 hours after antigen spray, *Dose group: 5 guineapigs (compound D)
Experimental: Equal volumes of a saline solution of egg albumin (200 mg/ml) and of Freund's Complete Ajuvant were mixed and emulsified. Each male New Zealand white strain rabbits, each weighing 2 to 2.5 kg., received an intramuscular injection of 0.5 ml of the emulsion in the left and right thigh regions. One week later, they received an intradermal injection of 0.25 ml of a saline solution of egg albumin (concentration: 20 mg/ml) in the different four sites of the dorsal skin surface three times every other week. Blood samples were collected from the carotid artery one week after the last injection.
The level of anaphylactic anti-egg albumin antibodies in pools of sera were determined by passive cutaneous anaphylaxis (PCA) reactions using shaven Hartley strain test guinea-pigs.
Antiserum was serially diluted (two fold) in saline and 0.1 ml of each antiserum dilution were injected intradermally into the dorsal skin surface of the test guinea-pigs. 24 hours after intradermal sensitization,Egg albumin-specific PCA reactions were elicited by intravenous injection of 10 mg of egg albumin in 1 ml of 1% Evans blue dye dissolved in saline. Reactions were read and recorded as the highest dilution of serum evoking threshold PCA reactivity (5 mm diameter).
Male Hartley strain guinea-pigs, weighing 305 to 400 g, were used. Animals were sensitized by an intravenous injection of rabbit antiserum against egg albumin (4000 PCA titer) with 0.5 ml/animal. After 24 hours, animals were placed individually in a plastic chamber of 5.3 liter volume. An aerosol of 5% egg albumin solution was sprayed in the chamber at a rate of 0.16 ml/min with a commercial nebulizer. The test compounds were given to the animals orally 30 minutes before the challenge with the egg albumin solution. Each dose group consisted of 3 or 5 animals. The inhibitory effect of the test compounds was determined from the number of surviving animals more than 2 hours after spray of the antigen.

| Structure (SMILES) | Inhibitory Effect (Dose 1 mg/kg) [%] | Inhibitory Effect (Dose 10 mg/kg) [%] |
| --- | --- | --- |
| CCS(=O)(=O)Nc1nc(CN2CCN(C(c3ccccc3)c3ccccc3)CC2)cs1 [Compound B, 4-(4-Benzhydrylpiperazin-1-ylmethyl)-2-ethanesulfonamidothiazole] | 67 | 100 |
| CC(=O)Nc1nc(CCCN2CCN(C(c3ccccc3)c3ccccc3)CC2)cs1 [Compound D, 4-[3-(4-Benzhydrylpiperazin-1-yl)-propyl]-2-acetamidothiazole] | 40 | 100 |
| CCCS(=O)(=O)Nc1nc(CN2CCN(C(c3ccccc3)c3ccccc3)CC2)cs1 [Compound C, 4-(4-Benzhydrylpiperazin-1-ylmethyl)-2-propanesulfonamidothiazole] | 100 | 100 |
| CS(=O)(=O)Nc1nc(CN2CCN(C(c3ccccc3)c3ccccc3)CC2)cs1 [Compound A, 4-(4-Benzhydrylpiperazin-1-ylmethyl)-2-methanesulfonamidothiazole] | 100 | 100 |
